Read-outs that look alike come from different tables or passages of the source.
Assays:
Experiment in all cases: Growth inhibitory activity of compounds on BaF3 cell lines stably transfected with kinase (MTS, 48 h)
Assay type in all cases: cell-based
[1] = target: T1, various mutants of kinase EGFR (BaF3 cell lines stably transfected with kinase) (Homo sapiens, UniProt P00533)
T1 construct: other: BaF3 cells stably transfected with EGFR Δ19Del; MTS, 48 h; other: BaF3 cell line stably transfected with EGFR Δ19Del
Description: (§1) The activity of compounds against various mutants of kinase EGFR was evaluated by their effect of inhibiting growth of BaF3 cell lines stably transfected with kinase. The specific test method was given as follows:
(§2) 1) Culture medium: DMEM (Dulbecco’s modified eagle medium) or RPMI 1640 (containing 10% fetal bovine serum, 100 µg/mL ampicillin, 100 µg/mL streptomycin).
(§3) 2) Reagent: MTS reaction solution (containing 2 mg/mL of MTS [3-(4,5-dimethylthiazol-2-yl)-5-(3-carboxymethoxyphenyl)-2-(4-sulfophenyl)-2H-tetrazoliu m, inner Salt]; 100 µg/mL of PES ([…])).
(§4) 3) Compound test: cells were incubated into a 96-well culture plate, the volume of cytosol was 90 µL, and then 10 µL of the compound at each gradient concentration was added. That is, the highest concentration was 10 µM, which was diluted stepwise by ⅓, and 8 concentration points were set in total; 0.1% DMSO (dimethyl sulfoxide) was contained in the system. The cell plate with uniformly mixed compound was cultured in a cell culture incubator (37° C.; 5% CO2) for 48 h, then 20 µL of MTS reaction solution was added, uniformly mixed and incubated in the cell culture incubator (37° C.; 5% CO2) for 1-4 h. OD values at 490 nm were measured by a microplate reader (VARIOSKAN FLASH, Thermo). Two parallels were set in each group of experiments, with 0.1% (a final concentration) DMSO as a negative control, and a culture medium without cells and compounds as a blank control. The cell growth inhibition rate was calculated by the following formula: […]
(§5) 4) IC50 calculation: The semi-inhibitory concentration of the compounds acting on cells was calculated using GradPad Prism 5 software according to the measured cell growth inhibition rate.

[2] = target: T2, various mutants of kinase EGFR (BaF3 cell lines stably transfected with kinase) (Homo sapiens, UniProt P00533, T790M, form not given)
T2 construct: other: BaF3 cells stably transfected with EGFR Δ19Del/T790M; MTS, 48 h; other: BaF3 cell line stably transfected with EGFR Δ19Del/T790M; MTS, 48
Description: as §1, §2, §3, §4, §5

[3] = target: T3, various mutants of kinase EGFR (BaF3 cell lines stably transfected with kinase) (Homo sapiens, UniProt P00533, C797S/L858R/T790M)
T3 construct: expressed in transfected cells; host or cells: BaF3
Description: as §1, §2, §3, §4, §5

[4] = target: T4, various mutants of kinase EGFR (BaF3 cell lines stably transfected with kinase) (Homo sapiens, UniProt P00533, T790M/C797S, form not given)
T4 construct: other: BaF3 cells stably transfected with EGFR Δ19Del/T790M/C797S; MTS, 48; other: BaF3 cell line stably transfected with EGFR Δ19Del/T790M/C7
Description: as §1, §2, §3, §4, §5

[5] = target: T5, various mutants of kinase EGFR (BaF3 cell lines stably transfected with kinase) (Homo sapiens, UniProt P00533, L858R/T790M)
T5 construct: expressed in transfected cells; host or cells: BaF3
Description: as §1, §2, §3, §4, §5

[6] = target: T6, various mutants of kinase EGFR (BaF3 cell lines stably transfected with kinase) (Homo sapiens, UniProt P00533, L858R)
T6 construct: expressed in transfected cells; host or cells: BaF3
Description: as §1, §2, §3, §4, §5

[7] = BaF3 cell line stably transfected with EGFR Δ19Del, read-out: Δ19Del growth inhibitory activity IC50
[8] = BaF3 cell line stably transfected with EGFR Δ19Del/T790M, read-out: Δ19Del/ T790M growth inhibitory activity IC50
[9] = BaF3 cell line stably transfected with EGFR L858R/T790M/C797S, read-out: L858R/T790M/ C797S growth inhibitory activity IC50
[10] = BaF3 cell line stably transfected with EGFR Δ19Del/T790M/C797S, read-out: Δ19Del/T790M/ C797S growth inhibitory activity IC50
[11] = BaF3 cell line stably transfected with EGFR L858R/T790M, read-out: L858R/ T790M growth inhibitory activity IC50
[12] = BaF3 cell line stably transfected with EGFR L858R, read-out: L858R growth inhibitory activity IC50
[13] = BaF3 cells stably transfected with EGFR Δ19Del, read-out: IC50, growth inhibition, Δ19Del
[14] = BaF3 cells stably transfected with EGFR Δ19Del/T790M, read-out: IC50, growth inhibition, Δ19Del/T790M
[15] = BaF3 cells stably transfected with EGFR L858R/T790M/C797S, read-out: IC50, growth inhibition, L858R/T790M/C797S
[16] = BaF3 cells stably transfected with EGFR Δ19Del/T790M/C797S, read-out: IC50, growth inhibition, Δ19Del/T790M/C797S
[17] = BaF3 cells stably transfected with EGFR L858R/T790M, read-out: IC50, growth inhibition, L858R/T790M
[18] = BaF3 cells stably transfected with EGFR L858R, read-out: IC50, growth inhibition, L858R

T4 sequence (P00533 with tags, fused parts or gaps DEL746-750/T790M/C797S, form open): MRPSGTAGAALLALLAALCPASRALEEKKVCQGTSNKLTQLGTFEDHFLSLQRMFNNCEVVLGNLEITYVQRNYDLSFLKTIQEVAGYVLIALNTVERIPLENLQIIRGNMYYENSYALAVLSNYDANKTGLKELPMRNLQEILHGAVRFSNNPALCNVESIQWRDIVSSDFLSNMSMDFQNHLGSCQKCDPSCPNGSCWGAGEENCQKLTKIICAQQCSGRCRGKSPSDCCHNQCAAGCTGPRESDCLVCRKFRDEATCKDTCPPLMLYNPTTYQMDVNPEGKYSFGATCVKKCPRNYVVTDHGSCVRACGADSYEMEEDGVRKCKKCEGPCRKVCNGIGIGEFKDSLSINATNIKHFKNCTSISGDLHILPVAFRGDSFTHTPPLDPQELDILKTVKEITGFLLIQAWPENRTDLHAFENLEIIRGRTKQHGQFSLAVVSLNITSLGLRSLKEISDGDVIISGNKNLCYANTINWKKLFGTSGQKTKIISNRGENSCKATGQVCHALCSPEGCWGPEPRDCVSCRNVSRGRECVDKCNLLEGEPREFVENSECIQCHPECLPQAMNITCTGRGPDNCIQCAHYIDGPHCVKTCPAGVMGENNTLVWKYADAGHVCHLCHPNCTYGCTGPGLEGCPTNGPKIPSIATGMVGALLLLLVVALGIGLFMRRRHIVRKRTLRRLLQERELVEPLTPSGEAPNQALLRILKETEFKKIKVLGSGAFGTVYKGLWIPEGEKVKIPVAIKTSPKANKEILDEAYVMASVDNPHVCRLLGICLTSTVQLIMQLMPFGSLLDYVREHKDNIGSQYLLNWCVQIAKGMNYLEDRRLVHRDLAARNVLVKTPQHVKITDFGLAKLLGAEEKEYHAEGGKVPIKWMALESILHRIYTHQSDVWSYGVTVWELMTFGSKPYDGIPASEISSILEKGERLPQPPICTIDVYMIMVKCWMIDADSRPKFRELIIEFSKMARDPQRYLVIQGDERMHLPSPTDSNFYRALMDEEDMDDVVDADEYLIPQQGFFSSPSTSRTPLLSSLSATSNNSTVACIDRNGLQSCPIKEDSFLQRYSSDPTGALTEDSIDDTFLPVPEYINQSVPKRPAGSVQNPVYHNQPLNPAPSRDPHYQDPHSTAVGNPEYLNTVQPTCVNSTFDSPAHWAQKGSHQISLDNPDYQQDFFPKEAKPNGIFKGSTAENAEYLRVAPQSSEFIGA
T5 sequence (P00533 25-1210 T790M/L858R): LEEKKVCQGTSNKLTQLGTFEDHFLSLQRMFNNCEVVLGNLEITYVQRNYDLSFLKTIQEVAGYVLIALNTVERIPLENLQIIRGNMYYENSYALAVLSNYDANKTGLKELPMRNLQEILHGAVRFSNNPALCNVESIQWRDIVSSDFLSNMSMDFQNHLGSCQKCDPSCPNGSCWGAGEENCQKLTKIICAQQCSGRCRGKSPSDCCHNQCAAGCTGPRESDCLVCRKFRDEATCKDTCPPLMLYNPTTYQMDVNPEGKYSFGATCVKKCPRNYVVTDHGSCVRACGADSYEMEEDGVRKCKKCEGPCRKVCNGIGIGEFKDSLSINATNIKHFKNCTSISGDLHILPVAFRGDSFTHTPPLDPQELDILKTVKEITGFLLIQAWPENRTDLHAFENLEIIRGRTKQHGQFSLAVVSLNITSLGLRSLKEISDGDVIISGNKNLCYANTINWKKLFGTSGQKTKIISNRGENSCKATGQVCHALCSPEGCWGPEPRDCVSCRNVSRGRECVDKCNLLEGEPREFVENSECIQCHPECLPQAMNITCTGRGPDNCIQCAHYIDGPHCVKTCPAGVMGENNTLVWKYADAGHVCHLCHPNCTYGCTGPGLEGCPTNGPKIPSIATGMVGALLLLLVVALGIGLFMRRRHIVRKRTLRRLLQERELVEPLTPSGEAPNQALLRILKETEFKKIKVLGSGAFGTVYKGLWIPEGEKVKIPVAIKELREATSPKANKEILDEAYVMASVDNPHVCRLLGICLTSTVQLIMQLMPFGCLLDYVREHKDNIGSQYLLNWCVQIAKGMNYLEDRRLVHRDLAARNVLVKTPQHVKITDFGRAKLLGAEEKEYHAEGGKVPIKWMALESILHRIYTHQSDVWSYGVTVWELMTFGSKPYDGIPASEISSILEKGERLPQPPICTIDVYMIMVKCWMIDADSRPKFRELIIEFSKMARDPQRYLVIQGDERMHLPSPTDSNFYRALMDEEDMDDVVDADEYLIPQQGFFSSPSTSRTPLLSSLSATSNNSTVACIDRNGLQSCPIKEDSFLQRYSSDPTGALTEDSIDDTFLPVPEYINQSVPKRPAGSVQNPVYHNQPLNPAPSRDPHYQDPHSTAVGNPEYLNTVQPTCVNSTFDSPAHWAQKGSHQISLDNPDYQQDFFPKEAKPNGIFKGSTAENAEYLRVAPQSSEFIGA
T1 sequence (P00533 with tags, fused parts or gaps DEL746-750): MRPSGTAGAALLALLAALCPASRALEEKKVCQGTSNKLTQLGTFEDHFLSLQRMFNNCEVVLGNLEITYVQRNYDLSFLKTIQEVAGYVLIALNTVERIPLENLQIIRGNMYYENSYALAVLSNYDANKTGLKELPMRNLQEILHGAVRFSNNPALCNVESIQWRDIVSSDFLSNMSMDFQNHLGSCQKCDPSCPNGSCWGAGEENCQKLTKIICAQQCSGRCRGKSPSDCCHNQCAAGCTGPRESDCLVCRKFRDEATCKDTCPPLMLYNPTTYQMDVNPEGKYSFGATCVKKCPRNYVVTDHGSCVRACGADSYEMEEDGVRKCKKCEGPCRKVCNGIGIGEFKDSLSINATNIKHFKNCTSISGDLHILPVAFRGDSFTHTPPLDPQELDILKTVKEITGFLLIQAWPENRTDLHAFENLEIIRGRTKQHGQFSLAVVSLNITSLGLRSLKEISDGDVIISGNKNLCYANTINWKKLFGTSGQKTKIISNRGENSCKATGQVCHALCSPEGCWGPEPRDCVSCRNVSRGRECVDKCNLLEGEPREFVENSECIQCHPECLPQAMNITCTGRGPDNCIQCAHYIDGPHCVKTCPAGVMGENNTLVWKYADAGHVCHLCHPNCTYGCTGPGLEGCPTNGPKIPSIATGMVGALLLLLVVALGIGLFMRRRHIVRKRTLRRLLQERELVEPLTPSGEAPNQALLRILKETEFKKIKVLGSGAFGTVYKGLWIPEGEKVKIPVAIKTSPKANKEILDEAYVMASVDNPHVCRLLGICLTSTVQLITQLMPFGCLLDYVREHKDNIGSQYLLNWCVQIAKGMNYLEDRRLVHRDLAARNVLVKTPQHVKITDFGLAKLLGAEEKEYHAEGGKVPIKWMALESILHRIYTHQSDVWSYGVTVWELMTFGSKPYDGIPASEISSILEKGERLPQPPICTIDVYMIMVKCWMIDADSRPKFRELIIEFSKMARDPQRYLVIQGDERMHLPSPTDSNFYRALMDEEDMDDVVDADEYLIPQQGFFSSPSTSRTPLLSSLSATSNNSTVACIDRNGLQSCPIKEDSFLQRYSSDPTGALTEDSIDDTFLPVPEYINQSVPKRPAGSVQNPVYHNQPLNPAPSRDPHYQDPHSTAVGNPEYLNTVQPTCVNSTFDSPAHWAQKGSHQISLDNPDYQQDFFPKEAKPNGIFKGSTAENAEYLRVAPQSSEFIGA
T2 sequence (P00533 with tags, fused parts or gaps DEL746-750/T790M, form open): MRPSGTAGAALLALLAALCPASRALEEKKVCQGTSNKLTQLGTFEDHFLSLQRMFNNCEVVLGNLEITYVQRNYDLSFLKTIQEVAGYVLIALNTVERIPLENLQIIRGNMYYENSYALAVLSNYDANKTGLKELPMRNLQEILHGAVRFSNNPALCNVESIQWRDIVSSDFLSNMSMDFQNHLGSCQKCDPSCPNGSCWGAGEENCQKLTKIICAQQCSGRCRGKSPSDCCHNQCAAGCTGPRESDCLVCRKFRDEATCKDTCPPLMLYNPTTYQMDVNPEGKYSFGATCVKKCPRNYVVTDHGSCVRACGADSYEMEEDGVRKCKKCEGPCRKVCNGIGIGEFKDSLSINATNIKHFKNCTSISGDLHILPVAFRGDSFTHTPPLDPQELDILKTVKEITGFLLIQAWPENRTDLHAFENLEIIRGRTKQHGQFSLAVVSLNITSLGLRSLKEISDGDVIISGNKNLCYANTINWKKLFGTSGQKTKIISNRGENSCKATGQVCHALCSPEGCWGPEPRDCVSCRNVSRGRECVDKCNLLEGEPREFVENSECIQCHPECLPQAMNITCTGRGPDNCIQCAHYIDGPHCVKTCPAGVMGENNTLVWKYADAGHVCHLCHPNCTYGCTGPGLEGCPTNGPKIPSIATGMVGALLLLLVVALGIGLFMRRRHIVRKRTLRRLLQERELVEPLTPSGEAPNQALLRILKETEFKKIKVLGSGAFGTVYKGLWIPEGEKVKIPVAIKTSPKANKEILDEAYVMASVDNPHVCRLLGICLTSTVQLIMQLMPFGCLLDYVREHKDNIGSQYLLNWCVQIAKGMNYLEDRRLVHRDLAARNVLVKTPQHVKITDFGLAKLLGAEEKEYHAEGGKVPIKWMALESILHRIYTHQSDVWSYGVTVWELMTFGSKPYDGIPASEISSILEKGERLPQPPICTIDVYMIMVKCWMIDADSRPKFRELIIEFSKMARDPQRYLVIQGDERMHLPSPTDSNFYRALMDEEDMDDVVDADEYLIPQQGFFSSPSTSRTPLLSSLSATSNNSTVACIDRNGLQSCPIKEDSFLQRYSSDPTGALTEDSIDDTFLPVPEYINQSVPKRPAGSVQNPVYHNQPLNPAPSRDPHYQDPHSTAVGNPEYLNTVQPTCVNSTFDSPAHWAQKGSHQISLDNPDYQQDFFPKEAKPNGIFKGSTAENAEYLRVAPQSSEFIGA

Compound | IC50 [1, 7] [nM] | IC50 [2, 8] [nM] | IC50 [3, 9] [nM] | IC50 [4, 10] [nM] | IC50 [5, 11] [nM] | IC50 [6, 12] [nM] | IC50 [1, 13] [nM] | IC50 [2, 14] [nM] | IC50 [3, 15] [nM] | IC50 [4, 16] [nM] | IC50 [5, 17] [nM] | IC50 [6, 18] [nM]
COc1cc(N2CCN(C)CC2)c(C)cc1Nc1nc(Nc2ccc3nccnc3c2N(C)S(C)(=O)=O)c2cc[nH]c2n1 [II-2-12] | 50 to 500 | ≤ 50 | ≤ 50 | ≤ 50 | ≤ 50 | 50 to 500 | – | – | – | – | – | –
COc1cc(N2CCC(N3CCN(C)CC3)CC2)c(CC2CC2)cc1Nc1ncc(Cl)c(Nc2ccc3nccnc3c2N(C)S(=O)(=O)C2CC2)n1 [Compound I-238] | – | – | – | – | – | – | 50 to 500 | 50 to 500 | 50 to 500 | ≤ 50 | 50 to 500 | 50 to 500
COc1ccc(N2CCC(O)CC2)cc1Nc1ncc(Br)c(Nc2ccc3nccnc3c2N(C)S(C)(=O)=O)n1 [Compound I-77] | – | – | – | – | – | – | 50 to 500 | ≤ 50 | ≤ 50 | ≤ 50 | ≤ 50 | 50 to 500
CCc1cc(Nc2ncc(C(C)C)c(Nc3ccc4nccnc4c3N(C)S(C)(=O)=O)n2)c(OC)cc1N1CCC(N2CCN(C)CC2)CC1 [Compound I-327] | ≤ 50 | ≤ 50 | 50 to 500 | 50 to 500 | ≤ 50 | ≤ 50 | – | – | – | – | – | –
CCc1cc(Nc2ncc(OC)c(Nc3ccc4nccnc4c3N(C)S(C)(=O)=O)n2)c(OC)cc1N1CCC(N2CCN(C)CC2)CC1 [Compound I-333] | ≤ 50 | ≤ 50 | ≤ 50 | ≤ 50 | ≤ 50 | ≤ 50 | – | – | – | – | – | –
CCc1cc(Nc2ncc(Cl)c(Nc3ccc4nccnc4c3N(C3CC3)S(C)(=O)=O)n2)c(OC(F)(F)F)cc1N1CCC(N2CCN(C)CC2)CC1 [Compound I-161] | – | – | – | – | – | – | 50 to 500 | 50 to 500 | 50 to 500 | 50 to 500 | 50 to 500 | 50 to 500
CN1CCN(C2CCN(c3ccc(Nc4ncc(Br)c(Nc5ccc6nccnc6c5NS(C)(=O)=O)n4)c(F)c3F)CC2)CC1 [Compound I-359] | ≤ 50 | ≤ 50 | ≤ 50 | ≤ 50 | ≤ 50 | ≤ 50 | – | – | – | – | – | –
COc1cc(N2CCC(N3CCN(C)CC3)CC2)c(C2CC2)cc1Nc1nccc(Nc2ccc3nccnc3c2N(C)S(C)(=O)=O)n1 [Compound I-343] | 50 to 500 | 50 to 500 | 50 to 500 | 50 to 500 | 50 to 500 | 50 to 500 | – | – | – | – | – | –
CN1CCc2cc(OC(F)(F)F)c(Nc3ncc(Br)c(Nc4ccc5nccnc5c4N(C)S(C)(=O)=O)n3)cc2C1 [Compound I-90] | – | – | – | – | – | – | 50 to 500 | 500 to 2500 | 50 to 500 | 500 to 2500 | 500 to 2500 | 500 to 2500
CCc1cc(Nc2ncc(C3CC3)c(Nc3ccc4nccnc4c3N(C)S(C)(=O)=O)n2)c(OC)cc1N1CCC(N2CCN(C)CC2)CC1 [Compound I-269] | – | – | – | – | – | – | ≤ 50 | ≤ 50 | ≤ 50 | ≤ 50 | ≤ 50 | ≤ 50
C=Cc1cc(Nc2ncc(Cl)c(Nc3ccc4nccnc4c3N(C)S(=O)(=O)C(F)(F)F)n2)c(OC(F)(F)F)cc1N1CCC(N2CCN(C)CC2)CC1 [Compound I-263] | – | – | – | – | – | – | 500 to 2500 | 50 to 500 | 50 to 500 | 50 to 500 | 500 to 2500 | 500 to 2500
COc1cc(N2CCC(N3CCN(C)CC3)CC2)c(C)cc1Nc1ncc([N+](=O)[O-])c(Nc2ccc3nccnc3c2N(C)S(C)(=O)=O)n1 [Compound I-31] | – | – | – | – | – | – | 50 to 500 | 50 to 500 | ≤ 50 | ≤ 50 | ≤ 50 | ≤ 50

Source: patent US20230310428A1, “EGFR INHIBITOR AND PREPARATION METHOD AND USE THEREOF” (HONGYUN BIOTECH CO., LTD., priority 2020, published 2023)
